Assay [1] deals with Mitogen-activated protein kinase 8 (Homo sapiens) (UniProt P45983). Description: Inhibition of human JNK1alpha1 assessed as residual activity at 1 uM relative to control.
Assay [2] deals with Glycogen synthase kinase-3 alpha (Homo sapiens) (UniProt P49840). Put plainly: Inhibition of human GSK3alpha assessed as residual activity at 1 uM relative to control.
Assay [3] addresses Misshapen-like kinase 1 (Homo sapiens) (UniProt Q8N4C8). Put plainly: Inhibition of human MINK assessed as residual activity at 1 uM relative to control.
Assay [4] has as its target T1, Serine/threonine-protein kinase TBK1 (Homo sapiens, UniProt Q9UHD2).
T1 sequence (Q9UHD2 whole entry): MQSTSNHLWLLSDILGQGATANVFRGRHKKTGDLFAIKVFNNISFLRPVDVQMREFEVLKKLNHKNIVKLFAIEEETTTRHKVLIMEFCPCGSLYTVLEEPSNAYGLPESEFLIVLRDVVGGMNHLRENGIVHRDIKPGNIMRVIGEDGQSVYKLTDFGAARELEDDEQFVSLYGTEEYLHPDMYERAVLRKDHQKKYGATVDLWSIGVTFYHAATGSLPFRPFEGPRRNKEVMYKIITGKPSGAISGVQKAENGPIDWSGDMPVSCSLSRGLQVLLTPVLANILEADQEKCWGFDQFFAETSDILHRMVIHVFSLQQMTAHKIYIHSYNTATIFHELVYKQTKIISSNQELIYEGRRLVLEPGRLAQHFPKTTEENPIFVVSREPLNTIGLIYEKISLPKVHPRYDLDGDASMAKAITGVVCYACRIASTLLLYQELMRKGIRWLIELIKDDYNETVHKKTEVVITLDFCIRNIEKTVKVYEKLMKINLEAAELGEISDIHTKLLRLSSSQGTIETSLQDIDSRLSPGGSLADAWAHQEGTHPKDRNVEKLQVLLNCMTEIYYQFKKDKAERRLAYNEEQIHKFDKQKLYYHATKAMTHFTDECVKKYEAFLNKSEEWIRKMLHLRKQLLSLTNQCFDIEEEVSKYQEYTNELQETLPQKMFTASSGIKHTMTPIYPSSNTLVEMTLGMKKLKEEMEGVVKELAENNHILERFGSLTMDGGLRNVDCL
Description: Inhibition of TBK1 in HEK293 cells after 4.5 hrs by ISRE-luciferase reporter gene assay in presence of poly I:C. The class given is cell-based.

Misshapen-like kinase 1 (Homo sapiens), sequence (Q8N4C8 whole entry, looked up): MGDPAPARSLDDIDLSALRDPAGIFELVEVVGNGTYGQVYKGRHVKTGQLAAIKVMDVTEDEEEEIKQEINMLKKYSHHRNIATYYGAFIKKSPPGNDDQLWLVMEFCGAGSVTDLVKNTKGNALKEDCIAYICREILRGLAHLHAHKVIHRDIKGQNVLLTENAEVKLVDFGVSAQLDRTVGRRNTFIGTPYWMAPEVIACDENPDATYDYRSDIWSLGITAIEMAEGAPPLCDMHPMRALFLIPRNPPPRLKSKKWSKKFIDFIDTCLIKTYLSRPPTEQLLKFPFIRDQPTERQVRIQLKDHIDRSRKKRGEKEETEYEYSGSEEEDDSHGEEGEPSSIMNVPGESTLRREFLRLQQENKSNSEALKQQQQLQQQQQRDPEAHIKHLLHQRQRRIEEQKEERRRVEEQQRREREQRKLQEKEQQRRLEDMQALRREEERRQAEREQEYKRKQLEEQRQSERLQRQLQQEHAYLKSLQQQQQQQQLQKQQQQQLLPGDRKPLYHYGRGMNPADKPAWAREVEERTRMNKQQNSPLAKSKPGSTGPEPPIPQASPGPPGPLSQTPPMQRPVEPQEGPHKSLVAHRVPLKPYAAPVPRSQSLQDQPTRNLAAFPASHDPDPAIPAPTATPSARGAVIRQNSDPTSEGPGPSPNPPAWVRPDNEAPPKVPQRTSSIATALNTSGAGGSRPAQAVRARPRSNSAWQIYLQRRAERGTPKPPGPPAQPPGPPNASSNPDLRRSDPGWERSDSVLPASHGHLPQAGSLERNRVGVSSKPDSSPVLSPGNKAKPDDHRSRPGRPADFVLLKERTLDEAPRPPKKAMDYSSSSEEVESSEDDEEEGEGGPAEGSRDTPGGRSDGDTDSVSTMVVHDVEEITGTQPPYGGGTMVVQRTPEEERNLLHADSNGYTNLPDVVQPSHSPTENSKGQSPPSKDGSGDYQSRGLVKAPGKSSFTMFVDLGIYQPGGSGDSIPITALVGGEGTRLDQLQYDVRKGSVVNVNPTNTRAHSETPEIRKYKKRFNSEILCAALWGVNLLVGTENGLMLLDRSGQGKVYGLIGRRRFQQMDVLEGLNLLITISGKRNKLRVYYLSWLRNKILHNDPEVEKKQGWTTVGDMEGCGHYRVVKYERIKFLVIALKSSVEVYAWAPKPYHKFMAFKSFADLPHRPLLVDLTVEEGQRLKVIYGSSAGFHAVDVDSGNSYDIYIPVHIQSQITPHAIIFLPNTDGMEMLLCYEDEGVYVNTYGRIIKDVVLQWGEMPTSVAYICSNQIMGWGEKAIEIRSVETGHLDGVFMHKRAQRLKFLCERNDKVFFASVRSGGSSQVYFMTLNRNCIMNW
Mitogen-activated protein kinase 8 (Homo sapiens), sequence (P45983 whole entry): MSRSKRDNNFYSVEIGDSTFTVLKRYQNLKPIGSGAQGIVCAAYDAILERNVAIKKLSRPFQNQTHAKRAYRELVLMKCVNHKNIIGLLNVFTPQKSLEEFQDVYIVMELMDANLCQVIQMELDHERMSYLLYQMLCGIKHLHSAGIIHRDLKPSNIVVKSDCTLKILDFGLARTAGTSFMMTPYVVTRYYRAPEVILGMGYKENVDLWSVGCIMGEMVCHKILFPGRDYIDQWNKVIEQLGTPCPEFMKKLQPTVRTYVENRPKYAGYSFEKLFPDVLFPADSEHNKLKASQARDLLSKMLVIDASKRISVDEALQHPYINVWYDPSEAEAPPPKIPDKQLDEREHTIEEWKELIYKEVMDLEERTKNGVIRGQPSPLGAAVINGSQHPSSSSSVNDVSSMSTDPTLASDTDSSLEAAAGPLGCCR
Glycogen synthase kinase-3 alpha (Homo sapiens), sequence (P49840 2-483 limits assumed): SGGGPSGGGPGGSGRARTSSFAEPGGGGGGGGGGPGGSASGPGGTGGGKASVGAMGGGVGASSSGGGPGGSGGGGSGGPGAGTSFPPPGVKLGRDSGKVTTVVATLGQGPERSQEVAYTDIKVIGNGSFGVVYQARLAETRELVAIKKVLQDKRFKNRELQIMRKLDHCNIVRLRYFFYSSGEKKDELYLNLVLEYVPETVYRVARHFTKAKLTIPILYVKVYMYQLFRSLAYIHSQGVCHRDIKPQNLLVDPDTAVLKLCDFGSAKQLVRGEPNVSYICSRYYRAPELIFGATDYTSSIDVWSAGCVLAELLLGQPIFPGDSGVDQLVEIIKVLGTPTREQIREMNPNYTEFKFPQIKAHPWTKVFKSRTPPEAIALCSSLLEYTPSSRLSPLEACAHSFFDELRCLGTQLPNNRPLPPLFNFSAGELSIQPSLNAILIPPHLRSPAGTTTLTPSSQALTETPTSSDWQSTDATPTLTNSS

With `COc1ccc(-c2nc3cc(-c4csc(C(=O)NCC(C)(C)C)c4)cnc3[nH]2)cc1`, the Activity is 98% in assay [1], 95% in assay [2] and 82% in assay [3]. Moreover, the IC50 in assay [4] came to 30 nM.
On the same counts, the results for `COc1ccc(-c2nc3cc(-c4csc(C(=O)NCCC(C)C)c4)cnc3[nH]2)cc1` are 98%, 102%, 86% and 78 nM.
For the compound `COc1ccc(-c2nc3cc(-c4csc(C(=O)NCC(C)C)c4)cnc3[nH]2)cc1`, the Activity turned out to be 117% in assay [1], 92% in assay [2] and 99% in assay [3]. Also, the IC50 in assay [4] amounted to 37 nM.

(Values after ChEMBL document CHEMBL3124838, “Discovery of 6-aryl-azabenzimidazoles that inhibit the TBK1/IKK-ε kinases” (Bioorg Med Chem Lett, 2014).)
